Measurements from patent US8759366B2, “Aminopyrimidines as SYK inhibitors” (Merck Sharp & Dohme Corp., priority 2009, dated 2014).
pIC50: −log10 of the molar value.

target: recombinant human SYK (GST-hSYK fusion protein) (Homo sapiens (Human), UniProt P43405); conditions: read-out: rhSYK Activity; Table 15
From the text: Homogeneous Time-Resolved Fluorescence (HTRF) Assay for the Recombinant Human SYK Enzyme:

pIC50, > 7.00:
OC(c1ncc(-c2cccc(Nc3nccc(C(F)(F)F)n3)c2)s1)(C1CC1)C1CC1 [Example 15-1]
CC(O)(c1ncc(-c2cccc(Nc3nccc(C(F)(F)F)n3)c2)s1)C1CC1 (stereo not drawn) [Example 15-3]

same assay, conditions: read-out: rhSYK Activity; Table 21

pIC50, > 7.00:
O=C(NC1CC1)C1CCC(c2ncc(-c3cccc(Nc4nccc(C(F)(F)F)n4)c3)s2)CC1 (stereo not drawn) [Example 21-13]
FC(F)(F)c1ccnc(Nc2cccc(-c3cnc(CCN4CCCC4=S)s3)c2)n1 [Example 21-16]

same assay, conditions: read-out: rhSYK Activity; Table 24

pIC50, > 7.00:
CC1(c2ncc(-c3cc(Nc4nccc(C(F)(F)F)n4)cc(N4CCOCC4)c3)s2)OCCO1 [Example 24-2]

same assay, conditions: read-out: rhSYK Activity; Table 26

pIC50, 6.00 to 7.00:
FC(F)(F)c1ccnc(Nc2cc(-c3cnc(C4(F)CCC4)s3)cc(N3CCOCC3)c2)n1 [Example 26-2]
CCOC(=O)C1CCC(F)(c2ncc(-c3cccc(Nc4nccc(C(F)(F)F)n4)c3)s2)CC1 (stereo not drawn) [Example 26-4]

pIC50, 5.00 to 6.00:
CCOC(=O)C1CCC(F)(c2ncc(-c3cccc(Nc4nccc(C(F)(F)F)n4)c3)s2)CC1 (stereo not drawn) [Example 26-5]

pIC50, > 7.00:
O=C(O)C1CCC(F)(c2ncc(-c3cccc(Nc4nccc(C(F)(F)F)n4)c3)s2)CC1 (stereo not drawn) [Example 25-6]
Cc1cc(Nc2nccc(C(F)(F)F)n2)cc(-c2cnc(C3(F)CCC(C(=O)O)CC3)s2)c1 (stereo not drawn) [Example 26-1]

same assay, conditions: read-out: rhSYK Activity; Table 33-A

pIC50, > 7.00:
Cc1cc(Nc2ncc(F)c(C3CC3)n2)cc(-c2cnc(C3(O)CCC(C(=O)O)CC3)s2)c1 (stereo not drawn) [33A-1]
Cc1cc(Nc2ncc(F)c(C3CC3)n2)cc(-c2cnc(C3(O)CCC(C(=O)O)CC3)s2)c1 (stereo not drawn) [33A-2]
CCOC(=O)C1CCC(O)(c2ncc(-c3cc(C)cc(Nc4nccc(C(F)(F)F)n4)c3)s2)CC1 (stereo not drawn) [33A-5]
CCOC(=O)C1CCC(O)(c2ncc(-c3cc(C)cc(Nc4nccc(C(F)(F)F)n4)c3)s2)CC1 (stereo not drawn) [33A-7]
CCOC(=O)C1(C)CCC(O)(c2ncc(-c3cc(C)cc(Nc4nccc(C(F)(F)F)n4)c3)s2)CC1 (stereo not drawn) [33A-10]
Cc1cc(Nc2nccc(C(F)(F)F)n2)cc(-c2cnc(C3(O)CCC(c4ccc(C(=O)O)cc4)CC3)s2)c1 (stereo not drawn) [33A-17]
Cc1cc(Nc2ncc(F)c(C)n2)cc(-c2cnc(C3(O)CCC(C(=O)O)C(C)(C)C3C)s2)c1 (stereo not drawn) [33A-74]

same assay, conditions: read-out: rhSYK Activity; Table 33B

pIC50, > 7.00:
Cc1cc(Nc2nccc(C(F)(F)F)n2)cc(-c2cnc(C3(O)CC(C(=O)O)C(C)(C)C3)s2)c1 (single isomer, unassigned) [Example 33B-4]
Cc1cc(Nc2nccc(C(F)(F)F)n2)cc(-c2cnc(C3(O)CC(C(=O)O)C(C)(C)C3)s2)c1 (single isomer, unassigned) [Example 33B-5]
Cc1cc(Nc2nccc(C(F)(F)F)n2)cc(-c2cnc(C3(O)CC(C(=O)O)C(C)(C)C3)s2)c1 (single isomer, unassigned) [Example 33B-6]
Cc1cc(Nc2nccc(C(F)(F)F)n2)cc(-c2cnc(C3(O)CC(C(=O)O)C(C)(C)C3)s2)c1 (single isomer, unassigned) [Example 33B-7]
Cc1cc(Nc2nccc(C(F)(F)F)n2)cc(-c2cnc(C3(O)CCCC(c4ccc(C(=O)O)cc4)C3)s2)c1 (single isomer, unassigned) [Example 33B-15]
Cc1cc(Nc2nccc(C(F)(F)F)n2)cc(-c2cnc(C3(O)CCCC(c4ccc(C(=O)O)cc4)C3)s2)c1 (single isomer, unassigned) [Example 33B-16]
Cc1cc(Nc2nccc(C(F)(F)F)n2)cc(-c2cnc(C3(O)CCC(C(=O)O)C(C(C)C)C3)s2)c1 (single isomer, unassigned) [Example 33B-22]
Cc1cc(Nc2nccc(C(F)(F)F)n2)cc(-c2cnc(C3(O)CCC(C(=O)O)C(C(C)C)C3)s2)c1 (single isomer, unassigned) [Example 33B-23]
Cc1cc(Nc2nccc(C)n2)cc(-c2cnc(C3(O)CCC(C(=O)O)C(C)C3)s2)c1 (single isomer, unassigned) [Example 33B-33]
Cc1cc(Nc2nccc(C(F)(F)F)n2)cc(-c2cnc(C3(O)CCC(C(=O)O)C(C)C3C)s2)c1 (single isomer, unassigned) [Example 33B-38]
Cc1cc(Nc2nccc(C(F)(F)F)n2)cc(-c2cnc(C3(O)CCC(C(=O)O)C(C)C3C)s2)c1 (single isomer, unassigned) [Example 33B-39]
CCC1C(C)C(C(=O)O)CCC1(O)c1ncc(-c2cc(C)cc(Nc3nccc(C(F)(F)F)n3)c2)s1 (single isomer, unassigned) [Example 33B-41]
CCC1C(C)C(C(=O)O)CCC1(O)c1ncc(-c2cc(C)cc(Nc3nccc(C(F)(F)F)n3)c2)s1 (single isomer, unassigned) [Example 33B-42]
Cc1cc(Nc2nccc(C(F)(F)F)n2)cc(-c2cnc(C3(O)CCCC3Cc3ccc(C(C)C(=O)O)cc3)s2)c1 (stereo not drawn) [Example 33B-2]
Cc1cc(Nc2nccc(C(F)(F)F)n2)cc(-c2cnc(C3(O)CC(C(=O)O)C(C)(C)C3)s2)c1 (stereo not drawn) [Example 33B-3]
COC1CC(O)(c2ncc(-c3cc(C)cc(Nc4nccc(C(F)(F)F)n4)c3)s2)CCC1C(=O)O (stereo not drawn) [Example 33B-13]
COC1CC(O)(c2ncc(-c3cc(C)cc(Nc4nccc(C(F)(F)F)n4)c3)s2)CCC1C(=O)O (stereo not drawn) [Example 33B-14]
Cc1cc(Nc2nccc(C(F)(F)F)n2)cc(-c2cnc(C3(O)CCC(C(=O)O)C4(CC4)C3)s2)c1 (stereo not drawn) [Example 33B-17]
Cc1cc(Nc2nccc(C(F)(F)F)n2)cc(-c2cnc(C3(O)CCCC(C(=O)O)C3)s2)c1 (stereo not drawn) [Example 33B-21]

same assay, conditions: read-out: rhSYK Activity; Table 113C

pIC50, 6.00 to 7.00:
Cc1cc(Nc2nccc(C3CC3)n2)cc(-c2cnc(C3(O)CCCN(C(=O)OC(C)(C)C)CC3)s2)c1 (single isomer, unassigned) [113C-18]
Cc1cc(Nc2nccc(C(C)C)n2)cc(-c2cnc(C3(O)CCCN(C(=O)OC(C)(C)C)CC3)s2)c1 (single isomer, unassigned) [113C-20]

pIC50, 5.00 to 6.00:
Cc1cc(Nc2nccc(C(C)C)n2)cc(-c2cnc(C3(O)CCCN(C(=O)OC(C)(C)C)CC3)s2)c1 (single isomer, unassigned) [113C-21]

pIC50, > 7.00:
COc1nc(Nc2cc(C)cc(-c3cnc(C4(O)CCCNCC4)s3)c2)ncc1Cl (single isomer, unassigned) [113C-15]
COc1nc(Nc2cc(C)cc(-c3cnc(C4(O)CCCNCC4)s3)c2)ncc1Cl (single isomer, unassigned) [113C-16]
Cc1cc(Nc2nccc(C3CC3)n2)cc(-c2cnc(C3(O)CCCN(C(=O)OC(C)(C)C)CC3)s2)c1 (single isomer, unassigned) [113C-17]
Cc1cc(Nc2ncc(F)c(C)n2)cc(-c2cnc(C3(O)CCNC(=O)CC3)s2)c1 (stereo not drawn) [113C-1]
Cc1cc(Nc2nccc(C3CC3)n2)cc(-c2cnc(C3(O)CCNC(=O)CC3)s2)c1 (stereo not drawn) [113C-2]
Cc1cc(Nc2ncc(Cl)c(C)n2)cc(-c2cnc(C3(O)CCNC(=O)CC3)s2)c1 (stereo not drawn) [113C-5]
COc1nc(Nc2cc(C)cc(-c3cnc(C4(O)CCNC(=O)CC4)s3)c2)ncc1F (stereo not drawn) [113C-6]
Cc1cc(Nc2nccc(C(F)F)n2)cc(-c2cnc(C3(O)CCNC(=O)CC3)s2)c1 (stereo not drawn) [113C-7]
O=C1CCC(O)(c2ncc(-c3cccc(Nc4nccc(C(F)(F)F)n4)c3)s2)CCN1 (stereo not drawn) [113C-8]
Cc1cc(Nc2nccc(C(C)(C)C)n2)cc(-c2cnc(C3(O)CCNC(=O)CC3)s2)c1 (stereo not drawn) [113C-9]
Cc1cc(Nc2nccc(OC(C)C)n2)cc(-c2cnc(C3(O)CCNC(=O)CC3)s2)c1 (stereo not drawn) [113C-10]
COc1nc(Nc2cc(C)cc(-c3cnc(C4(O)CCNC(=O)CC4)s3)c2)ncc1Cl (stereo not drawn) [113C-11]
Cc1cc(Nc2nccc(-c3cccs3)n2)cc(-c2cnc(C3(O)CCNC(=O)CC3)s2)c1 (stereo not drawn) [113C-12]
Cc1cc(Nc2nccc(C3CC3)n2)cc(-c2cnc(C3(O)CCCNCC3)s2)c1 (stereo not drawn) [113C-13]
Cc1cc(Nc2nccc(C(C)C)n2)cc(-c2cnc(C3(O)CCCN(C(=O)OC(C)(C)C)CC3)s2)c1 (stereo not drawn) [113C-19]

same assay, conditions: read-out: rhSYK Activity; Table 113D, lower part (Structure)

pIC50, > 7.00:
Cc1cc(Nc2nccc(C(F)(F)F)n2)cc(-c2cnc(C3(O)CCC(C(=O)O)OC3)s2)c1 (single isomer, unassigned) [Example 113D-11]
Cc1cc(Nc2nccc(C(F)(F)F)n2)cc(-c2cnc(C3(O)CCC(C(=O)O)OC3)s2)c1 (single isomer, unassigned) [Example 113D-12]

same assay, conditions: read-out: rhSYK Activity; Table 116A

pIC50, > 7.00:
COc1ccc(Cn2cc(-c3ccnc(Nc4cc(C)cc(-c5cnc(C6(O)CCC(C(=O)O)CC6)s5)c4)n3)nn2)cc1 (stereo not drawn) [116A-17]

pIC50, 6.00 to 7.00:
Cc1cc(Nc2ncc(Cl)c(O)n2)cc(-c2cnc(C3(O)CCC(C(=O)O)C(C)(C)C3)s2)c1 (stereo not drawn) [116A-29]

same assay, conditions: read-out: rhSYK Activity; recombinant human SYK, HTRF assay; class symbols

pIC50, > 7.00:
Cc1cc(Nc2nccc(C(F)(F)F)n2)cc(-c2cnc(C3(O)CCCN(CC(F)(F)F)CC3)s2)c1 (single isomer, unassigned) [Example 54A-85]
Cc1cc(Nc2nccc(C(F)(F)F)n2)cc(-c2cnc(C3(O)CCCN(CC(F)(F)F)CC3)s2)c1 (single isomer, unassigned) [Example 54A-86]
COc1nc(Nc2cc(C)cc(-c3cnc(C4(O)CCCN(C(=O)c5cnn[nH]5)CC4)s3)c2)ncc1Cl (single isomer, unassigned) [Example 54D-32]
COc1nc(Nc2cc(C)cc(-c3cnc(C4(O)CCCN(C(=O)c5cnn[nH]5)CC4)s3)c2)ncc1Cl (single isomer, unassigned) [Example 54D-33]

same assay, conditions: read-out: rhSYK activity

pIC50, > 7.00:
Cc1cc(Nc2nccc(C(F)(F)F)n2)cc(-c2cnc(C3(O)CCC(NC(=O)[C@H](C)O)CC3)s2)c1 (stereo in doubt) [Example 54E-2]
